#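 Test compounds were applied to cells in 96-well plates for 48 hours at 5 doses. GI50 is the concentration that inhibits growth by half. TGI: total growth inhibition.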
# Experiments:
# Experiment in all cases: NCI-60 cell line screen, 48 h
# T-47D breast = tested on: T-47D breast
# M14 melanoma = tested on: M14 melanoma
# HOP-62 NSCLC = tested on: HOP-62 NSCLC
# 786-0 renal = tested on: 786-0 renal
# OVCAR-3 ovarian = tested on: OVCAR-3 ovarian
# SNB-19 CNS = tested on: SNB-19 CNS
# OVCAR-5 ovarian = tested on: OVCAR-5 ovarian
# SF-268 CNS = tested on: SF-268 CNS
# MOLT-4 leukemia = tested on: MOLT-4 leukemia
# SK-MEL-2 melanoma = tested on: SK-MEL-2 melanoma
# SK-OV-3 ovarian = tested on: SK-OV-3 ovarian
# SW-620 colon = tested on: SW-620 colon
# NCI-H460 lung = tested on: NCI-H460 lung
# TK-10 renal = tested on: TK-10 renal
# MDA-MB-435 = tested on: MDA-MB-435
# DU-145 prostate = tested on: DU-145 prostate
# MALME-3M melanoma = tested on: MALME-3M melanoma
# LOX IMVI melanoma = tested on: LOX IMVI melanoma
# HCC-2998 colon = tested on: HCC-2998 colon
# MDA-MB-231 breast = tested on: MDA-MB-231 breast
# SN12C renal = tested on: SN12C renal
# NCI-H23 lung = tested on: NCI-H23 lung
# NCI/ADR-RES ovarian = tested on: NCI/ADR-RES ovarian
# NCI-H226 lung = tested on: NCI-H226 lung
# RXF 393 renal = tested on: RXF 393 renal
# CAKI-1 renal = tested on: CAKI-1 renal
# KM12 colon = tested on: KM12 colon
# SF-295 CNS = tested on: SF-295 CNS
smiles,measurement,setting,value
COc1ccc(-c2nc(S(=O)(=O)c3ccccc3)c(S(=O)CC(=O)N3CCC(C)CC3)o2)cc1 (stereo unspecified),GI50,T-47D breast,1.71 µM
same,TGI,T-47D breast,4.09 µM
same,GI50,M14 melanoma,1.89 µM
same,TGI,M14 melanoma,4.21 µM
same,GI50,HOP-62 NSCLC,8.12 µM
same,TGI,HOP-62 NSCLC,21 µM
same,GI50,786-0 renal,1.92 µM
same,TGI,786-0 renal,4.05 µM
same,GI50,OVCAR-3 ovarian,1.33 µM
same,TGI,OVCAR-3 ovarian,2.74 µM
same,GI50,SNB-19 CNS,6.43 µM
same,TGI,SNB-19 CNS,19.1 µM
same,GI50,OVCAR-5 ovarian,2.99 µM
same,TGI,OVCAR-5 ovarian,8.58 µM
same,GI50,SF-268 CNS,3.78 µM
same,TGI,SF-268 CNS,14.9 µM
same,GI50,MOLT-4 leukemia,2.09 µM
same,TGI,MOLT-4 leukemia,5.71 µM
same,GI50,SK-MEL-2 melanoma,3.19 µM
same,TGI,SK-MEL-2 melanoma,9.83 µM
same,GI50,SK-OV-3 ovarian,12.9 µM
same,TGI,SK-OV-3 ovarian,26.5 µM
same,GI50,SW-620 colon,1.73 µM
same,TGI,SW-620 colon,4.36 µM
same,GI50,NCI-H460 lung,5.95 µM
same,TGI,NCI-H460 lung,20.6 µM
same,GI50,TK-10 renal,1.91 µM
same,TGI,TK-10 renal,3.85 µM
same,GI50,MDA-MB-435,2.55 µM
same,TGI,MDA-MB-435,6.56 µM
same,GI50,DU-145 prostate,1.37 µM
same,TGI,DU-145 prostate,2.72 µM
same,GI50,MALME-3M melanoma,1.94 µM
same,TGI,MALME-3M melanoma,3.67 µM
same,GI50,LOX IMVI melanoma,1.72 µM
same,TGI,LOX IMVI melanoma,3.25 µM
same,GI50,HCC-2998 colon,14 µM
same,TGI,HCC-2998 colon,28.8 µM
same,GI50,MDA-MB-231 breast,1.91 µM
same,TGI,MDA-MB-231 breast,4.08 µM
same,GI50,SN12C renal,1.9 µM
same,TGI,SN12C renal,3.6 µM
same,GI50,NCI-H23 lung,3.12 µM
same,TGI,NCI-H23 lung,12.1 µM
same,GI50,NCI/ADR-RES ovarian,3.1 µM
same,TGI,NCI/ADR-RES ovarian,12 µM
same,GI50,NCI-H226 lung,2.37 µM
same,TGI,NCI-H226 lung,6.25 µM
same,GI50,RXF 393 renal,1.68 µM
same,TGI,RXF 393 renal,3.25 µM
same,GI50,CAKI-1 renal,2.28 µM
same,TGI,CAKI-1 renal,6.7 µM
same,GI50,KM12 colon,4.72 µM
same,TGI,KM12 colon,16.7 µM
same,GI50,SF-295 CNS,6.44 µM
same,TGI,SF-295 CNS,19.4 µM
